Species on record: Rattus norvegicus
Experiment: DrugMatrix - Regimen: Daily Repeat
Type: toxicity, organism-based, Sprague-Dawley
Design: regimen Daily Repeat, gender Male, age 6-8 weeks
Conditions: in vivo, po, route oral GAVAGE, […]; for ABSOLUTE BASOPHIL / ABSOLUTE EOSINOPHIL / ABSOLUTE LYMPHOCYTE / ABSOLUTE MONOCYTE / ABSOLUTE SEGMENTED NEUTROPHIL / BASOPHIL / EOSINOPHIL / ERYTHROCYTE COUNT / HEMATOCRIT / HEMOGLOBIN / LEUKOCYTE COUNT / LYMPHOCYTE / MEAN CORPUSCULAR HEMOGLOBIN / MEAN CORPUSCULAR HEMOGLOBIN CONCENTRATION / MEAN CORPUSCULAR VOLUME / MONOCYTE / NEUTROPHIL / NUCLEATED RED BLOOD CELLS / PLATELET COUNT: tissue Blood; for ALANINE AMINOTRANSFERASE / ALBUMIN / ALKALINE PHOSPHATASE / ASPARTATE AMINOTRANSFERASE / BLOOD UREA NITROGEN / CARBON DIOXIDE / CHLORIDE / CHOLESTEROL / CREATINE PHOSPHOKINASE / CREATININE / GLUCOSE / LACTATE DEHYDROGENASE / LIPASE / PHOSPHORUS / POTASSIUM / SODIUM / TOTAL BILIRUBIN / URIC ACID / TOTAL PROTEIN: tissue Plasma
[1] = 0.3 mg/kg, 120 h, dose level Low, time 5 day
[2] = 150 mg/kg, 72 h, dose level High, time 3 day
[3] = 150 mg/kg, 120 h, dose level High, time 5 day

## C[C@]12CC[C@@H]3c4ccc(O)cc4CC[C@H]3[C@@H]1CC[C@@H]2O [ESTRADIOL]
[1]
  ABSOLUTE BASOPHIL: 0 CELLS/uL
  ABSOLUTE EOSINOPHIL: 0 CELLS/uL
  ABSOLUTE LYMPHOCYTE: 8421.33 CELLS/uL
  ABSOLUTE MONOCYTE: 178.67 CELLS/uL
  ABSOLUTE SEGMENTED NEUTROPHIL: 333.33 CELLS/uL
  BASOPHIL: 0%
  EOSINOPHIL: 0%
  ERYTHROCYTE COUNT: 5.67 x10E6/uL
  HEMATOCRIT: 36.43%
  HEMOGLOBIN: 14.13 G/DL
  LEUKOCYTE COUNT: 8.93 x10E3/uL
  LYMPHOCYTE: 94.33%
  MEAN CORPUSCULAR HEMOGLOBIN: 24.93 pg
  MEAN CORPUSCULAR HEMOGLOBIN CONCENTRATION: 38.77 G/DL
  MEAN CORPUSCULAR VOLUME: 64.2 fL
  MONOCYTE: 2%
  NEUTROPHIL: 3.67%
  NUCLEATED RED BLOOD CELLS: 0 /100WBC
  PLATELET COUNT: 1136.67 x10E3/uL
  ALANINE AMINOTRANSFERASE: 62 u/L
  ALBUMIN: 4.23 G/DL
  ALKALINE PHOSPHATASE: 381.67 u/L
  ASPARTATE AMINOTRANSFERASE: 80.33 u/L
  BLOOD UREA NITROGEN: 11 mg/dL
  CARBON DIOXIDE: 31.67 mmol/L
  CHLORIDE: 97 MEQ/L
  CHOLESTEROL: 52.67 mg/dL
  CREATINE PHOSPHOKINASE: 324.67 u/L
  CREATININE: 0.15 mg/dL
  GLUCOSE: 162.67 mg/dL
  LACTATE DEHYDROGENASE: 166.67 u/L
  LIPASE: 10.33 u/L
  PHOSPHORUS: 9.63 mg/dL
  POTASSIUM: 5.76 MEQ/L
  SODIUM: 143 MEQ/L
  TOTAL BILIRUBIN: 0.2 mg/dL
  URIC ACID: 0.43 mg/dL
[2]
  ABSOLUTE BASOPHIL: 0 CELLS/uL
  ABSOLUTE EOSINOPHIL: 0 CELLS/uL
  ABSOLUTE LYMPHOCYTE: 6738.33 CELLS/uL
  ABSOLUTE MONOCYTE: 100.67 CELLS/uL
  ABSOLUTE SEGMENTED NEUTROPHIL: 527.67 CELLS/uL
  BASOPHIL: 0%
  EOSINOPHIL: 0%
  ERYTHROCYTE COUNT: 5.96 x10E6/uL
  HEMATOCRIT: 36.23%
  HEMOGLOBIN: 13.83 G/DL
  LEUKOCYTE COUNT: 7.37 x10E3/uL
  LYMPHOCYTE: 91.67%
  MEAN CORPUSCULAR HEMOGLOBIN: 23.37 pg
  MEAN CORPUSCULAR HEMOGLOBIN CONCENTRATION: 38.27 G/DL
  MEAN CORPUSCULAR VOLUME: 61 fL
  MONOCYTE: 1.33%
  NEUTROPHIL: 7%
  NUCLEATED RED BLOOD CELLS: 0 /100WBC
  PLATELET COUNT: 934 x10E3/uL
  ALANINE AMINOTRANSFERASE: 64.33 u/L
  ALBUMIN: 3.8 G/DL
  ALKALINE PHOSPHATASE: 760.67 u/L
  ASPARTATE AMINOTRANSFERASE: 90 u/L
  BLOOD UREA NITROGEN: 10 mg/dL
  CARBON DIOXIDE: 33 mmol/L
  CHLORIDE: 100 MEQ/L
  CHOLESTEROL: 22.67 mg/dL
  CREATINE PHOSPHOKINASE: 373.33 u/L
  CREATININE: 0.22 mg/dL
  GLUCOSE: 140.33 mg/dL
  LACTATE DEHYDROGENASE: 223.67 u/L
  LIPASE: 12.33 u/L
  PHOSPHORUS: 8.83 mg/dL
  SODIUM: 145.57 MEQ/L
  TOTAL BILIRUBIN: 0.23 mg/dL
  TOTAL PROTEIN: 5.87 G/DL
  URIC ACID: 0.3 mg/dL
[3]
  ABSOLUTE BASOPHIL: 0 CELLS/uL
  ABSOLUTE EOSINOPHIL: 0 CELLS/uL
  ABSOLUTE LYMPHOCYTE: 9738.33 CELLS/uL
  ABSOLUTE MONOCYTE: 202.33 CELLS/uL
  ABSOLUTE SEGMENTED NEUTROPHIL: 759.33 CELLS/uL
  BASOPHIL: 0%
  EOSINOPHIL: 0%
  ERYTHROCYTE COUNT: 6.23 x10E6/uL
  HEMATOCRIT: 39.2%
  HEMOGLOBIN: 14.6 G/DL
  LEUKOCYTE COUNT: 10.7 x10E3/uL
  LYMPHOCYTE: 91%
  MEAN CORPUSCULAR HEMOGLOBIN: 23.43 pg
  MEAN CORPUSCULAR HEMOGLOBIN CONCENTRATION: 37.27 G/DL
  MEAN CORPUSCULAR VOLUME: 62.93 fL
  MONOCYTE: 2%
  NEUTROPHIL: 7%
  NUCLEATED RED BLOOD CELLS: 0 /100WBC
  PLATELET COUNT: 1292.33 x10E3/uL
  ALANINE AMINOTRANSFERASE: 55.33 u/L
  ALBUMIN: 3.87 G/DL
  ALKALINE PHOSPHATASE: 654.67 u/L
  ASPARTATE AMINOTRANSFERASE: 67 u/L
  BLOOD UREA NITROGEN: 7.67 mg/dL
  CARBON DIOXIDE: 29.33 mmol/L
  CHLORIDE: 99.67 MEQ/L
  CHOLESTEROL: 14 mg/dL
  CREATINE PHOSPHOKINASE: 271.33 u/L
  CREATININE: 0.13 mg/dL
  GLUCOSE: 125.67 mg/dL
  LACTATE DEHYDROGENASE: 192.67 u/L
  LIPASE: 7.67 u/L
  POTASSIUM: 5.37 MEQ/L
  SODIUM: 145.23 MEQ/L
  TOTAL BILIRUBIN: 0.2 mg/dL
  TOTAL PROTEIN: 6.67 G/DL
  URIC ACID: 0.3 mg/dL
